Assay results published in patent US20240415801A1, “Methods and Compositions for Treating Fibroids” (Lundquist Institute for Biomedical Innovation at …, priority 2023, published 2024).

Tests used:
Format in all cases: in vivo, SCID/Beige mice
[1] = Safety test, plasma chemistry panel (Example 2); conditions: 5 mg/kg i.p.
Procedure: In order to determine if Bay 11-7082 administration was safe, the plasma collected from the mice was tested after 8 weeks of treatment with vehicle or Bay 11-7082. The plasma (100 μL) was pipetted into the Comprehensive Diagnostic Profile Rotor (#500-1038, Abaxis, Union City, CA, USA) and the values of glucose, creatinine, BUN, phosphorus, sodium, albumin, alkaline phosphatase, serum glutamic pyruvic transaminase (SGPT; ALT), total protein, globulin, total bilirubin and amylase were analyzed using VetScan VS2 chemistry analyzer (Abaxis, Union City, CA, USA).

fibroid xenografts [2] = assay: Total collagen enzyme-linked immunosorbent assay of xenografts (Example 1); conditions: 20 mg/kg daily, 8 weeks, vs controls
Procedure: The total collagen content in xenografts was assessed in duplicate using the QuickZyme Total Collagen Assay Kit (QuickZyme Biosciences, Leiden, Netherlands), following the manufacturer's instructions as previously described. Absorbance readings were taken spectrophotometrically at a wavelength of 570 nm, and concentrations were determined by comparing sample optical density values to a standard curve. Total collagen levels were quantified as μg/ml of protein and reported as fold change relative to the vehicle group.

fibroid xenografts [3] = assay: Quantitative RT-PCR of fibroid xenografts (Example 1); conditions: 20 mg/kg daily, 8 weeks
Procedure: Quantitative RT-PCR was performed as previously described. Selected gene expression levels were assessed utilizing the Invitrogen StepOne System, with normalization against 18S. Triplicate reactions were conducted, and relative mRNA expression was calculated using the comparative cycle threshold method (2−ΔΔCt), with results presented as fold change relative to the control group. The primer sequences used are shown in the following Sequence Table: […]

fibroid xenografts [4] = assay: Immunoblotting of fibroid xenografts (Example 1); conditions: 20 mg/kg daily, 8 weeks
Text: Protein extracted from the xenografts underwent immunoblotting as previously described. Primary antibodies targeting COL3A1, FN1, SPARC, TDO2, and Cleaved Caspase 3 were purchased from Proteintech Group, Inc. (Chicago, IL, USA). Band densities of specific proteins were quantified using the Image J program (http://imagej.nih.gov/ij/), and normalized to a Ponceau S staining band on the membrane. Results were expressed as means±SEM, and are presented as ratios relative to the control group, designated as 1.

fibroid xenografts [5] = assay: RNA sequencing of fibroid xenografts (Example 1); conditions: for number of downregulated transcripts (RNAseq) / number of upregulated transcripts (RNAseq): cutoff 1.5 fold, xenografts after two months, n=4 vs 4 vehicle
fibroid xenografts [6] = assay: Histology and immunohistochemistry of xenografts (Example 2); conditions: 5 mg/kg, 8 weeks
Text: After fixation with 4% paraformaldehyde and routine dehydration, a portion of xenograft samples were embedded in paraffin. To evaluate histologic characteristics, 5-μm-thick paraffin sections of xenografts were stained with hematoxylin and eosin (H-3502, Vector Laboratories, Inc.) and Masson's trichrome stain (HT15-1 KT, Sigma-Aldrich) according to the manufacturer's instructions.
For Immunohistochemistry, the xenografts were fixed with 4% paraformaldehyde in PBS, and subsequently transferred to PBS containing 30% sucrose (wt/vol) until equilibrated in cold (4° C.). After fixation, 5-μm-thick paraffin sections were treated three times with Histo-Clear™ (National Diagnostics, Atlanta, GA) for 5 min, and rehydrated by a sequential ethanol wash, and then incubated in target retrieval solution (Dako, Carpinteria, CA) in a microwave for 10 min in order to retrieve the antigens. For blocking, tissues were incubated for 10 minutes with 3% solution of H2O2 followed by incubation with PBS-5% normal goat serum-0.2% Triton X-100. Tissue sections were incubated with primary antibody rabbit anti-Ki67 (dilution 1:250, 27309-1-AP, Proteintech Group, Inc), rabbit anti-cleaved caspase-3 (dilution 1:50, #9664, Cell Signaling Technology), rabbit anti-CCND1 (dilution 1:50, #55506, Cell Signaling Technology) and mouse anti-E2F1 (dilution 1:50, sc-251, Santa Cruz Biotechnology, Inc.) overnight at 4° C. in a humidified chamber. The antigens were then visualized using biotinylated antibodies and streptavidin, conjugated with horseradish peroxidase. Control sections were incubated with the secondary antibody, with replacement of primary antibody with the dilution reagent (Dako). Diaminobenzidine (Dako) which served as the substrate. […] Immunostained sections were examined under a microscope (Olympus IX83; Olympus Surgical Technologies America) and five representative images of each slide were quantitatively analyzed with the use of Halo software (Indica Labs Inc.) and were averaged for comparative analysis between vehicle and […] treatment groups in a blinded fashion.

fibroid xenografts [7] = assay: Immunohistochemistry and Masson's trichrome staining of xenografts (Example 1)
Procedure: Tissues were fixed in 4% paraformaldehyde and subsequently embedded in paraffin, and 5-micron sections were cut and mounted onto glass slides. Staining procedures, including Masson's trichrome stain (HT15-1 KT, Sigma-Aldrich), and immunohistochemistry, were conducted as previously described. Primary antibodies utilized in this study included rabbit anti-Ki67 (dilution 1:250, 27309-1-AP, Proteintech Group, Inc, Rosemont, IL, USA), rabbit anti-cleaved caspase-3 (dilution 1:50, #9664, Cell Signaling Technology, Danvers, MA, USA), rabbit anti-CCND1 (dilution 1:50, #55506, Cell Signaling Technology), and mouse anti-E2F1 (dilution 1:50, sc-251, Santa Cruz Biotechnology, Inc., Dallas, TX, USA).

[8] = xenografts, 20 mg/kg daily, two months

## Cc1ccc(S(=O)(=O)/C=C/C#N)cc1 [Bay 11-7082]
[1]; 8 weeks
  adverse effects in blood plasma chemistry panel (glucose, kidney function, electrolytes, liver function, pancreatic amylase): no adverse effects
[1]; plasma after 8 weeks
  Albumin (mean ± SEM): 3.5 ± 0.14 g/dL
  Alkaline phosphatase (mean ± SEM): 91.9 ± 20.05 U/l
  Amylase (mean ± SEM): 643.0 ± 36.82 U/l
  BUN (mean ± SEM): 27.1 ± 5.75 mg/dL
  Creatinine (mean ± SEM): 0.4 ± 0.03 mg/dL
  Globulin (mean ± SEM): 1.1 ± 0.24 g/dL
  Glucose (mean ± SEM): 261.0 ± 14.63 mg/dL
  Phosphorus (mean ± SEM): 10.1 ± 0.53 mg/dL
  SGPT (ALT) (mean ± SEM): 54.5 ± 8.71 U/l
  Sodium (mean ± SEM): 155.3 ± 1.35 mEq/l
  Total bilirubin (mean ± SEM): 0.3 ± 0.04 mg/dL
  Total protein (mean ± SEM): 4.6 ± 0.16 g/dL
Fibroid xenografts [2]
  total collagen protein levels: significant decrease
Fibroid xenografts [3]
  expression of miR-29c and miR-200c: significant increase
Fibroid xenografts [3]; n=10
  mRNA expression of SPARC, TDO2, MYD88, TLR6, TLR3, IL6, TNFα, TNFRSF11A, IL1β, COL3A1, FN1, LOX, TGFB3, CCND1, E2F1, CKS2, PRL, ESR1, PGR, VEGFC, PDGFA, HTR1B: significant decrease
Fibroid xenografts [4]
  protein abundance of COL3A1, FN1, SPARC, TDO2 (Western blot): inhibited
Fibroid xenografts [5]
  number of downregulated transcripts (RNAseq): 629
  number of upregulated transcripts (RNAseq): 374
Fibroid xenografts [5]; listed as Bay
  number of downregulated transcripts (RNAseq): 374
  number of upregulated transcripts (RNAseq): 629
Fibroid xenografts [5]; [8]
  RNAseq: expression of TDO2 and serotonin receptor HTR1B: significantly inhibited
  RNAseq: expression of growth factors (IGF1, EGF, PDGF, FGF8, PRL, TGFB3) and ECM components (COL3A1, KRT10): decrease
  RNAseq: genes of cell proliferation, mitosis, mitotic apparatus, cytokinesis (Ki67, E2F1, CCND1, CCNB1, CCNA2, BUB1, CKS2 and others): downregulated
  RNAseq: pro-inflammatory cytokines (IL1a, IL1b, TNF, IL6, IL15, IL7R, TNFRSF11A), TLR3, TLR6, chemokines (CXCCR4, CCR5, CCL3, CCL5): downregulation
Fibroid xenografts [5]; xenografts, two months, significant variation among animals
  RNAseq: vWF, ICAM1, ITGAX, SOX2, CXCL8, IL10, IL13: up-regulated
Fibroid xenografts [6]
  cell proliferation: nuclei staining for Ki67, CCND1 and E2F1: reduced number of nuclei staining
  staining for collagen (Masson's trichrome, blue stain): significant decrease
  staining of cleaved caspase 3 (apoptosis): no significant change
Fibroid xenografts [7]; 20 mg/kg daily, 8 weeks
  expression of cell cycle markers CCND1 and E2F1 (IHC): decreased expression
  expression of collagens (Masson's trichrome staining): significant decrease
  expression of proliferation marker Ki67 (IHC): significant reduction
  smooth muscle content (Masson's trichrome staining): no significant differences
Fibroid xenografts [7]; drug versus vehicle
  Cleaved caspase 3 staining (IHC): no significant difference
